Results from ChEMBL document CHEMBL5303573, “Mapping human microbiome drug metabolism by gut bacteria and their genes” (Nature, 2019).

Assays:
[1] = The drug is tested on Bifidobacterium longum subsp. Infantis strain: CCUG52486 for biotransformation. The drug concentrations were measured before and after a 12-h incubation by liquid-chromatography-coupled mass spectrometry (LC–MS); conditions: 2 µM
[2] = anaerostipes sp., 12 h, 2 µM
Description: The drug is tested on Anaerostipes sp. strain: fecal isolate for biotransformation. The drug concentrations were measured before and after a 12-h incubation by liquid-chromatography-coupled mass spectrometry (LC–MS)

[3] = The drug is tested on Bacteroides xylanisolvens strain: DSM18836 for biotransformation. The drug concentrations were measured before and after a 12-h incubation by liquid-chromatography-coupled mass spectrometry (LC–MS); conditions: 2 µM
[4] = The drug is tested on Bacteroides coprophilus strain: DSM18228 for biotransformation. The drug concentrations were measured before and after a 12-h incubation by liquid-chromatography-coupled mass spectrometry (LC–MS); conditions: 2 µM
[5] = bacteroides thetaiotaomicron, 12 h, 2 µM
Description: The drug is tested on Bacteroides thetaiotaomicron strain: 7330 for biotransformation. The drug concentrations were measured before and after a 12-h incubation by liquid-chromatography-coupled mass spectrometry (LC–MS)

[6] = The drug is tested on Clostridium sp. strain: fecal isolate for biotransformation. The drug concentrations were measured before and after a 12-h incubation by liquid-chromatography-coupled mass spectrometry (LC–MS); conditions: 2 µM
[7] = roseburia intestinalis, 12 h, 2 µM
Description: The drug is tested on Roseburia intestinalis strain: L1-82 for biotransformation. The drug concentrations were measured before and after a 12-h incubation by liquid-chromatography-coupled mass spectrometry (LC–MS)

[8] = The drug is tested on Alistipes indistinctus strain: DSM22520 for biotransformation. The drug concentrations were measured before and after a 12-h incubation by liquid-chromatography-coupled mass spectrometry (LC–MS); conditions: 2 µM
[9] = The drug is tested on Bacteroides finegoldii strain: DSM17565 for biotransformation. The drug concentrations were measured before and after a 12-h incubation by liquid-chromatography-coupled mass spectrometry (LC–MS); conditions: 2 µM
[10] = The drug is tested on Ruminococcus gnavus strain: ATCC29149 for biotransformation. The drug concentrations were measured before and after a 12-h incubation by liquid-chromatography-coupled mass spectrometry (LC–MS); conditions: mediterraneibacter gnavus, 2 µM
[11] = The drug is tested on Dorea formicigenerans strain: ATCC27755 for biotransformation. The drug concentrations were measured before and after a 12-h incubation by liquid-chromatography-coupled mass spectrometry (LC–MS); conditions: 2 µM
[12] = parabacteroides distasonis, 12 h, 2 µM
Description: The drug is tested on Parabacteroides distasonis strain: ATCC8503 for biotransformation. The drug concentrations were measured before and after a 12-h incubation by liquid-chromatography-coupled mass spectrometry (LC–MS)

[13] = bacteroides thetaiotaomicron, 12 h, 2 µM; remark: listed apart in the source
Description: The drug is tested on Bacteroides thetaiotaomicron strain: 3731 for biotransformation. The drug concentrations were measured before and after a 12-h incubation by liquid-chromatography-coupled mass spectrometry (LC–MS)

[14] = bacteroides fragilis, 12 h, 2 µM
Description: The drug is tested on Bacteroides fragilis strain: 3397 (T10) for biotransformation. The drug concentrations were measured before and after a 12-h incubation by liquid-chromatography-coupled mass spectrometry (LC–MS)

[15] = bifidobacterium adolescentis, 12 h, 2 µM
Description: The drug is tested on Bifidobacterium adolescentis strain: ATCC 15703 for biotransformation. The drug concentrations were measured before and after a 12-h incubation by liquid-chromatography-coupled mass spectrometry (LC–MS)

[16] = The drug is tested on Ruminococcus torques strain: ATCC27756 for biotransformation. The drug concentrations were measured before and after a 12-h incubation by liquid-chromatography-coupled mass spectrometry (LC–MS); type: ADME; set-up: dose 2 uM, timepoint 0 vs 12 hours; conditions: 2 µM
[17] = The drug is tested on Enterobacter cancerogenus strain: ATCC35316 for biotransformation. The drug concentrations were measured before and after a 12-h incubation by liquid-chromatography-coupled mass spectrometry (LC–MS); conditions: 2 µM
[18] = bacteroides thetaiotaomicron, 12 h, 2 µM; remark: listed apart in the source
Description: The drug is tested on Bacteroides thetaiotaomicron strain: VPI-5482 for biotransformation. The drug concentrations were measured before and after a 12-h incubation by liquid-chromatography-coupled mass spectrometry (LC–MS)

[19] = The drug is tested on Anaerotruncus colihominis strain: DSM17241 for biotransformation. The drug concentrations were measured before and after a 12-h incubation by liquid-chromatography-coupled mass spectrometry (LC–MS); conditions: 2 µM
[20] = bacteroides intestinalis, 12 h, 2 µM
Description: The drug is tested on Bacteroides intestinalis strain: DSM17393 for biotransformation. The drug concentrations were measured before and after a 12-h incubation by liquid-chromatography-coupled mass spectrometry (LC–MS)

Compound	Bacterial Biotransformation [1]	Bacterial Biotransformation [2]	Bacterial Biotransformation [3]	Bacterial Biotransformation [4]	Bacterial Biotransformation [5]	Bacterial Biotransformation [6]	Bacterial Biotransformation [7]	Bacterial Biotransformation [8]	Bacterial Biotransformation [9]	Bacterial Biotransformation [10]	Bacterial Biotransformation [11]	Bacterial Biotransformation [12]	Bacterial Biotransformation [13]	Bacterial Biotransformation [14]	Bacterial Biotransformation [15]	Bacterial Biotransformation [16]	Bacterial Biotransformation [17]	Bacterial Biotransformation [18]	Bacterial Biotransformation [19]	Bacterial Biotransformation [20]
CC1OC(OC2C(O)CC(OC3C(O)CC(OC4CCC5(C)C(CCC6C5CCC5(C)C(C7=CC(=O)OC7)CCC65O)C4)OC3C)OC2C)CC(O)C1O (stereo not given)	Compound NOT metabolized	Compound NOT metabolized	Compound metabolized	Compound metabolized	Compound metabolized	Compound metabolized	Compound NOT metabolized	Compound NOT metabolized	Compound NOT metabolized	Compound NOT metabolized	Compound NOT metabolized	Compound metabolized	Compound NOT metabolized	Compound metabolized	Compound NOT metabolized	Compound NOT metabolized	Compound NOT metabolized	Compound metabolized	–	–
O=c1[nH]c2ccccc2n1CCCN1CCC(n2c(=O)[nH]c3cc(Cl)ccc32)CC1 [DOMPERIDONE]	Compound NOT metabolized	Compound NOT metabolized	Compound NOT metabolized	Compound NOT metabolized	Compound NOT metabolized	Compound NOT metabolized	Compound NOT metabolized	Compound NOT metabolized	Compound NOT metabolized	Compound NOT metabolized	Compound NOT metabolized	Compound NOT metabolized	Compound NOT metabolized	Compound NOT metabolized	Compound NOT metabolized	Compound NOT metabolized	Compound NOT metabolized	Compound NOT metabolized	Compound NOT metabolized	Compound NOT metabolized
O=C1[C@H](CC[C@H](O)c2ccc(F)cc2)[C@@H](c2ccc(O)cc2)N1c1ccc(F)cc1 [EZETIMIBE]	Compound NOT metabolized	Compound NOT metabolized	Compound NOT metabolized	Compound NOT metabolized	Compound NOT metabolized	Compound NOT metabolized	Compound NOT metabolized	Compound NOT metabolized	Compound NOT metabolized	Compound NOT metabolized	Compound NOT metabolized	Compound NOT metabolized	Compound NOT metabolized	Compound NOT metabolized	–	Compound NOT metabolized	Compound NOT metabolized	Compound NOT metabolized	Compound NOT metabolized	–
CC(=O)OCC(CCn1cnc2cnc(N)nc21)COC(C)=O [FAMCICLOVIR]	Compound metabolized	Compound NOT metabolized	Compound metabolized	Compound metabolized	Compound metabolized	Compound NOT metabolized	Compound NOT metabolized	Compound metabolized	Compound metabolized	Compound NOT metabolized	Compound NOT metabolized	Compound metabolized	Compound metabolized	Compound metabolized	–	Compound NOT metabolized	Compound NOT metabolized	Compound metabolized	Compound NOT metabolized	Compound metabolized
Cc1ccc(S(=O)(=O)NC(=O)NN2CC3CCCC3C2)cc1 (stereo not given) [GLICLAZIDE]	Compound NOT metabolized	Compound NOT metabolized	Compound NOT metabolized	Compound NOT metabolized	Compound NOT metabolized	Compound NOT metabolized	Compound NOT metabolized	Compound NOT metabolized	Compound NOT metabolized	Compound NOT metabolized	Compound NOT metabolized	Compound NOT metabolized	Compound metabolized	Compound metabolized	Compound NOT metabolized	Compound NOT metabolized	Compound NOT metabolized	Compound NOT metabolized	Compound NOT metabolized	Compound NOT metabolized
COC1=C(OC)C(=O)C(CCCCCCCCCCO)=C(C)C1=O [IDEBENONE]	Compound metabolized	Compound metabolized	Compound metabolized	Compound NOT metabolized	Compound NOT metabolized	Compound NOT metabolized	Compound NOT metabolized	Compound metabolized	Compound NOT metabolized	Compound NOT metabolized	Compound NOT metabolized	Compound NOT metabolized	Compound NOT metabolized	Compound metabolized	Compound NOT metabolized	Compound NOT metabolized	Compound NOT metabolized	Compound NOT metabolized	Compound NOT metabolized	Compound NOT metabolized
COc1ccc2c(c1)c(CC(=O)O)c(C)n2C(=O)c1ccc(Cl)cc1 [INDOMETHACIN]	Compound metabolized	Compound metabolized	Compound metabolized	Compound metabolized	Compound metabolized	Compound NOT metabolized	Compound metabolized	Compound metabolized	Compound metabolized	Compound NOT metabolized	Compound NOT metabolized	Compound metabolized	Compound metabolized	Compound metabolized	Compound NOT metabolized	Compound NOT metabolized	Compound NOT metabolized	Compound metabolized	Compound NOT metabolized	Compound metabolized
COC(=O)C1=C(C)NC(C)=C(C(=O)OC(C)C)C1c1cccc2nonc12 (stereo not given) [ISRADIPINE]	Compound NOT metabolized	Compound NOT metabolized	Compound NOT metabolized	Compound NOT metabolized	Compound NOT metabolized	Compound NOT metabolized	Compound NOT metabolized	Compound NOT metabolized	Compound NOT metabolized	Compound NOT metabolized	Compound NOT metabolized	Compound NOT metabolized	Compound NOT metabolized	Compound NOT metabolized	Compound NOT metabolized	Compound NOT metabolized	Compound NOT metabolized	Compound NOT metabolized	Compound NOT metabolized	Compound NOT metabolized
